In patent publication US12122811B2, “BDNF mimetic peptide amphiphiles” (Northwestern University, priority 2018, dated 2024):
Positions of bridges follow the written chain, without caps; N, C: chain ends. Non-standard residues stand in square brackets, D forms with d. Residues, ends and D or L forms follow the SMILES beside them. Chains are numbered I, II in the order given. *: point of attachment. PEG6 = NCCOCCOCCOCCOCCOCCOCCC(=O)O; Palmitoyl = CCCCCCCCCCCCCCCC(=O)*

B1: BDNF protein: Human/Murine/Rat BDNF protein (Peprotech) (protein, UniProt P23560 19-247, looked up)
Neurotrophic factor BDNF …: APMKEANIRGQGGLAYPGVRTHGTLESVNGPKAGSRGLTSLADTFEHVIEELLDEDQKVRPNEENNKDADLYTSRVMLSSQVPLEPPLLFLLEEYKNYLDAANMSMRVRRHSDPARRGELSVCDSISEWVTAADKKTAVDMSGGTVTVLEKVPVSKGQLKQYFYETKCNPMGYTKEGCRGIDKRHWNSQCRTTQSYVRALTMDSKKRIGWRFIRIDTSCVCTLTIKRGR

What was measured:
[1] = tested on: primary mouse cortical neurons; assay: Multi-electrode array (MEA) electrophysiology of neuronal cultures; assay type: cell-based; conditions: for spontaneous firing frequency: 30 days in vitro, relative to control condition; for network burst duration / spikes per network burst: over time, vs control media
Procedure: Electrophysiology—Multi Electrode Array (MEA) Plates. For 2D electrophysiology studies, 12 well MEA plates with 64 electrodes per well were coated with PEI and laminin according to Axion Biosystems protocols.^5 Embryonic primary neurons were seeded at a density of 60,000 cells/well and cultured during 14 DIV. On day 14, cells were treated with BDNF protein, BDNF PA, BDNF Peptide, or starvation media. Every 5 days, half of the media was removed from each well and replaced with fresh media containing additional treatment. Spontaneous network and synchronized activity was recorded using Axion Biosystems Maestro 768 channel amplifier and Axion Integrated Studios (AxIS) v2.4 software. The amplifier recorded from all channels simultaneously using a gain of 1200× and a sampling rate of 12.5 kHz/channel. After passing the signal through a Butterworth band-pass filter (300-5000 Hz) on-line spike detection (threshold=6× the root-mean-square of noise on each channel) was done with the AxIS adaptive spike detector. All recordings were conducted at 37° C. with appropriate 5% CO2/95% O2. Spontaneous network activity was recorded for 5 min each day starting at 10 DIV. Active electrodes were defined as having >5 spikes/min and only wells with over 10 active electrodes during the baseline-recording period were used in the analysis. Synchronized activity was defined as spike and burst activity that occurred on 25% of the electrodes or more in a well within 100 ms of each other. […] All data reflects well-wide averages, where the reported value of n represents the number of wells per condition.

TrkB receptor = target: T1, TrkB receptor (Mus musculus, UniProt P15209); assay: TrkB receptor phosphorylation (p-TrkB) by western blot in primary cortical neurons; assay type: cell-based; conditions: for TrkB phosphorylation after pre-treatment with inhibitor K252a: K252a 2 h prior to treatment, 6 h post-treatment
T1 construct: Protein was extracted from primary neuronal cultures; endogenous in cells; host or cells: primary cortical neurons from E16 CD1 mouse embryos, 14 DIV
T1 sequence (P15209 32-821): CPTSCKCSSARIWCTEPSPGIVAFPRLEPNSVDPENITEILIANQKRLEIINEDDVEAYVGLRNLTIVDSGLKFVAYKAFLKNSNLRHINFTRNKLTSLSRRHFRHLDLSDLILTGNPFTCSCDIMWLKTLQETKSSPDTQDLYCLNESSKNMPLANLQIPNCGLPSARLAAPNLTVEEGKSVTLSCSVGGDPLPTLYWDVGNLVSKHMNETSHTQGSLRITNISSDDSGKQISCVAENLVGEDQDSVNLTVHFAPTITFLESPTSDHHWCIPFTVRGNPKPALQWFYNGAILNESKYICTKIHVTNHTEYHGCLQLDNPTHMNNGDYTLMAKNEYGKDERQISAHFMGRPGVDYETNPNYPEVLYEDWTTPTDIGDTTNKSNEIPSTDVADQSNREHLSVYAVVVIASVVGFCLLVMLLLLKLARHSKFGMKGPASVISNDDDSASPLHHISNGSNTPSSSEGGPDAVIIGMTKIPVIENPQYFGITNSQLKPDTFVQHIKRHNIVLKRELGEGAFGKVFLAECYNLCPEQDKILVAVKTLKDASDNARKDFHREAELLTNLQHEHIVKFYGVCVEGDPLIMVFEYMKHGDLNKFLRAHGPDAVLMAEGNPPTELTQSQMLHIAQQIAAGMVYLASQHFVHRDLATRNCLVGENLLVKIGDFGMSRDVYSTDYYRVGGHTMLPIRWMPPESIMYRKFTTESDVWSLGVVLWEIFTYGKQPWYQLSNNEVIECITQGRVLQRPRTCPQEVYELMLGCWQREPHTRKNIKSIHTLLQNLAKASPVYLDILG
Procedure: 2.3.2. Dissection of Embryonic Primary Cortical Neurons. Neurons were obtained from embryonic brains as described elsewhere.^2 Briefly, time-pregnant mouse was sacrificed by cervical dislocation and the embryos were extracted at embryonic day 16 (E16). Cerebral cortices were dissected from the mouse embryos and meninges were removed in a solution of Hank's Balanced Salt Solution (HBSS) with 1% pen-strep (Invitrogen) and then digested with trypsin (Invitrogen) and DNAse (Sigma-Aldrich) for 10 min at 37° C. The tissue was mechanically dissociated, centrifuged at 1000 g for 5 min, and resuspended in CO2-equilibrated Neurobasal (NB) neuronal culture medium (Invitrogen) supplemented with 10% normal horse serum (NHS) (Invitrogen), 1% pen-strep (Invitrogen), 0.5 mM L-glutamine (Invitrogen), and 5.8 μL NaHCO3/mL (Sigma-Aldrich). The cell suspension was pre-plated at 37° C. for 30 min. Afterwards, the supernatant was collected, passed through a cell strainer with 100 μm pore size and centrifuged at 1000 g for 5 min. The pellet was resuspended in NB neuronal culture medium (1% NHS, 1% pen-strep, 0.5 mM L-glutamine, 22 μM glutamic acid (Sigma-Aldrich), 2% B27 (Gibco), and 5.8 μL NaHCO3/mL (Sigma-Aldrich), and plated at different densities (depending on the type of experiment, see below) directly on tissue culture plates coated with poly-D-lysine (Sigma-Aldrich). After 24 hs, the medium was replaced with serum-free neuronal culture medium (1% pen-strep, 0.5 mM L-glutamine, 2% B27, 5.8 μL NaHCO3/mL). Under these conditions, we obtained a neuron-enriched culture with a composition of approximately 10% glial cells.
BDNF PA Treatments and Cell Culture Procedures. Treatments were prepared by dissolving PA (including E2 Filler, E2 Filler+E4PEG, E2 Filler+Linear BDNF, E2 Filler+BDNF PAs) and BDNF peptide at different concentrations (0.5, 1.0 or 5.0 μM), in media without serum or B27 supplement or starvation media. Unless otherwise noted, BDNF PA, Linear BDNF PA, or E4PEG PAs were co-assembled at 10 mol % with E2 filler PA (total concentration of PA was 5.0, 10.0, or 50.0 μM respectively). For the co-assembly ratio study, BDNF PA was co-assembled at 10, 20, 50, 70, 90, and 100 mol %. Human/Murine/Rat BDNF protein (Peprotech) was resuspended at different concentrations (0.25, 0.5 and 1 nM) in starvation media.
For western blot, cells were cultured in 6 well plates at a density of approximately 900,000 cells/well for 14 DIV before being treated. Treatments were added for 2, 4, 6, 8, 12 or 24 h in vitro before protein was harvested. […] Protein was extracted after six hours of treatment.
Western Blot. Protein was extracted from primary neuronal cultures with Halt Protease and Phosphatase Inhibitor Cocktail (Thermo Scientific) and a BCA assay (Thermo Scientific) was performed to determine protein content of each sample. Cell protein was loaded into and separated using a 4-20% SDS-PAGE gel (Bio-Rad). It was then electrotransferred from the gel to a nitrocellulose membrane (Bio-Rad). The membranes were blocked with 5% milk solution (Bio-Rad) for 30 minutes followed by an overnight incubation with primary antibodies at 4° C. The following primary antibodies were used: rabbit anti-pTrkB (1:1000, Cell Signaling), rabbit anti-TrkB (1:1000, Cell Signaling), rabbit anti-Actin (1:2000, Sigma Aldrich), mouse anti-Actin (1:2000, Sigma Aldrich), rabbit anti-pPLCγ (1:1000, Cell Signaling), rabbit anti-PLCγ (1:1000, Cell Signaling), rabbit anti-pAKT (1:2000, Cell Signaling), mouse anti-AKT (1:2000, Cell Signaling), rabbit anti-pERK1+ERK2 (1:1000, Abcam), rabbit anti-ERK 1/2 (1:1000, Cell Signaling), rabbit anti-PSD95 (1:1000, Abcam), rabbit anti-MAP-2 (1:2000, BioLegend), and mouse anti-Tuj-1 (1:1000, BioLegend). Membranes were then incubated with their corresponding secondary HRP-conjugated antibodies (1:1000; ThermoFisher). Protein signals were detected using Radiance Bioluminescent ECL substrate (Azure Biosystems). […]

| Molecule | spontaneous firing frequency [1] | network burst duration [1] | spikes per network burst [1] | dose dependence of TrkB activation (TrkB receptor; 0.5, 1.0 and 5.0 μM, 6 h) | activation of TrkB receptor, co-assembly ratio study (TrkB receptor; 10-50 mol % BDNF PA co-assembled with E2 Filler PA, 6 h) | activation of TrkB receptor, co-assembly ratio study (TrkB receptor; 90-100 mol % BDNF PA (do not form fibers), 6 h) | TrkB phosphorylation after pre-treatment with inhibitor K252a (TrkB receptor) | persistence of p-TrkB (TrkB receptor; BDNF protein 0.25 nM, time course to 24 h) |
| --- | --- | --- | --- | --- | --- | --- | --- | --- |
| CCCCCCCCCCCCCCCC(=O)N[C@H](C(=O)N[C@H](C(=O)N[C@@H](C)C(=O)N[C@@H](C)C(=O)N[C@@H](CCC(=O)O)C(=O)N[C@@H](CCC(=O)O)C(=O)N[C@@H](CCC(=O)O)C(=O)N[C@@H](CCC(=O)O)C(=O)NCCOCCOCCOCCOCCOCCOCCC(=O)NCCCC[C@@H]1NC(=O)[C@H]2CCCN2C(=O)[C@H](CCCNC(=N)N)NC(=O)[C@H](CCCCN)NC(=O)[C@H](CCCCN)NC1=O)C(C)C)C(C)C [BDNF PA, RKK(aK)(dP)-(PEG6 Spacer)-EEEEAAVV-C16 (SEQ ID NO: 5)] (I: Palmitoyl-VVAAEEEE[PEG6] / II: cyclo(KKKR[dP]); amide I:C-II:1) | increased spontaneous firing frequency relative to the control condition | longer network bursts | significantly more spikes per network burst | no dose-dependent activation of TrkB | increase in activation of TrkB receptor in comparison with the control conditions | unable to activate the receptor to the same degree | completely blocked |  |
| B1 | increased spontaneous firing frequency relative to the control condition | longer network bursts | significantly more spikes per network burst |  |  |  | completely blocked | no longer showing p-TrkB after 12 h |
